Reference: article PMC9358669, “Native metabolomics identifies the rivulariapeptolide family of protease inhibitors” (Nature Communications, 2022)
Where two headings read alike, the source gives them in different places.

Experiments:
Chymotrypsin [1] = test system: Chymotrypsin; set-up: method as in earlier work; conditions: Supplementary Table 5, Top 50 chymotrypsin inhibitors among Ahp-cyclodepsipeptides; cited from earlier work
Elastase = target: T1, Elastase (Sus scrofa, UniProt P00772); test: Elastase inhibition, fluorogenic substrate assay (MeOSuc-Ala-Ala-Pro-Val-AMC); assay type: biochemical, Sus domesticus; conditions: for IC50 / Mean (RFU/s): 40 min pre-incubation; for IC50: mean, n = 3; for Mean (RFU/s): Elastase
T1 construct: purchased Sigma-Aldrich

Proteinase K = target: T2, Proteinase K (Parengyodontium album, UniProt P06873); test: Proteinase K inhibition, fluorogenic substrate assay (Suc-Ala-Ala-Pro-Phe-AMC); assay type: biochemical, Tritirachium album; conditions: for IC50 / Mean (RFU/s): 40 min pre-incubation; for IC50: mean, n = 3; for Mean (RFU/s): Proteinase K
T2 construct: purchased Roche

Chymotrypsin [2] = target: T3, Chymotrypsin (Bos taurus, UniProt P00766); test: Chymotrypsin inhibition, fluorogenic substrate assay (Suc-Ala-Ala-Pro-Phe-AMC); assay type: biochemical; conditions: for Mean (RFU/s): Chymotrypsin; for fold increase in potency towards chymotrypsin: molassamide B (6) compared to molassamide (5)
T3 construct: purchased Sigma-Aldrich

[3] = inhibitor concentration 0.0508053 nM
[4] = inhibitor concentration 0.152416 nM
[5] = inhibitor concentration 0.457247 nM
[6] = inhibitor concentration 1.37174 nM
[7] = inhibitor concentration 4.11523 nM
[8] = inhibitor concentration 12.3457 nM
[9] = inhibitor concentration 37.037 nM
[10] = inhibitor concentration 111.111 nM
[11] = inhibitor concentration 333.333 nM
[12] = inhibitor concentration 1000 nM
[13] = inhibitor concentration 3000 nM
[14] = molassamide B (6) compared to molassamide (5)
[15] = 40 min pre-incubation, mean, n = 3, read-out: IC50 Chymotrypsin
[16] = inhibitor concentration 0.0508053 nM, 40 min pre-incubation
[17] = inhibitor concentration 0.152416 nM, 40 min pre-incubation
[18] = inhibitor concentration 0.457247 nM, 40 min pre-incubation
[19] = inhibitor concentration 1.37174 nM, 40 min pre-incubation
[20] = inhibitor concentration 4.11523 nM, 40 min pre-incubation
[21] = inhibitor concentration 12.3457 nM, 40 min pre-incubation
[22] = inhibitor concentration 37.037 nM, 40 min pre-incubation
[23] = inhibitor concentration 111.111 nM, 40 min pre-incubation
[24] = inhibitor concentration 333.333 nM, 40 min pre-incubation
[25] = inhibitor concentration 1000 nM, 40 min pre-incubation
[26] = inhibitor concentration 3000 nM, 40 min pre-incubation
[27] = Supplementary Table 5, compounds of this study, read-out: Chymotrypsin IC50
[28] = replacement of Abu (compound 2) for Leu (1)

T2 sequence (P06873 106-384): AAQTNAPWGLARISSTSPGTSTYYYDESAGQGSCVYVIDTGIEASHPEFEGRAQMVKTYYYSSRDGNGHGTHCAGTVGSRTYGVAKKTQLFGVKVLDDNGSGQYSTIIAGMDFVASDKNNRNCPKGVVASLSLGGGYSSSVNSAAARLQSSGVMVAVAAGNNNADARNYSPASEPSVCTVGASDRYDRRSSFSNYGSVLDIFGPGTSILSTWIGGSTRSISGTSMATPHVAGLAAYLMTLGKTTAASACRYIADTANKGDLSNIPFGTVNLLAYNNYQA
T1 sequence (P00772 27-266): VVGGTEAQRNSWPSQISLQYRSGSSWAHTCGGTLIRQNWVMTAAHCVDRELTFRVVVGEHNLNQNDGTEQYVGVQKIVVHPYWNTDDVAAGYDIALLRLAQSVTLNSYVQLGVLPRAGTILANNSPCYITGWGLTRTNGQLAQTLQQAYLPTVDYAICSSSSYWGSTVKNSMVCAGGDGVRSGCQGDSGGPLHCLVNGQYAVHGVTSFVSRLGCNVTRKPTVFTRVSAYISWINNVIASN

Micropeptin KB991
IC50 (Chymotrypsin [1]): 870 nM

CCCC(=O)N[C@@H](CCC(N)=O)C(=O)N[C@@H]1C(=O)N[C@@H](CCCNC(N)=O)C(=O)N[C@H]2CC[C@@H](O)N(C2=O)[C@@H]([C@@H](C)CC)C(=O)N(C)[C@@H](Cc2ccc(OC)c(Br)c2)C(=O)N[C@@H](C(C)C)C(=O)O[C@@H]1C [Symplocamide A]
IC50 (Chymotrypsin [1]): 380 nM

Tutuilamide C
IC50 (Chymotrypsin [1]): 542 nM

CC[C@H](C)[C@@H]1NC(=O)[C@H](Cc2ccccc2)N(C)C(=O)[C@H](Cc2ccccc2)N2C(=O)[C@H](CC[C@H]2O)NC(=O)[C@H](CC(C)C)NC(=O)[C@@H](NC(=O)[C@H](O)CO)[C@@H](C)OC1=O [Micropeptin MM836]
IC50 (Chymotrypsin [1]): 1400 nM

CCCCCC(=O)N[C@@H](CCC(=O)O)C(=O)N[C@@H]1C(=O)N[C@@H](Cc2ccc(O)cc2)C(=O)N[C@H]2CC[C@@H](O)N(C2=O)[C@@H](Cc2ccccc2)C(=O)N(C)[C@@H](Cc2ccc(O)cc2)C(=O)N[C@@H](C(C)C)C(=O)O[C@@H]1C [Micropeptin C]
IC50 (Chymotrypsin [1]): 1100 nM

CCCCCC(=O)NCC(=O)N[C@H](C(=O)N[C@@H]1C(=O)N[C@@H](CCC(N)=O)C(=O)N[C@H]2CC[C@@H](O)N(C2=O)[C@@H](Cc2ccccc2)C(=O)N(C)[C@@H](Cc2c[nH]c3ccccc23)C(=O)N[C@@H](C(C)C)C(=O)O[C@@H]1C)[C@@H](C)O [Micropeptin 103]
IC50 (Chymotrypsin [1]): 1000 nM

C/C=C1\NC(=O)[C@@H](NC(=O)[C@@H](NC(=O)[C@H](C)NC(=O)CCC)[C@@H](C)O)[C@@H](C)OC(=O)[C@H](C(C)C)NC(=O)[C@H](Cc2ccc(O)c(Br)c2)N(C)C(=O)[C@H](Cc2ccccc2)N2C(=O)[C@H](CC[C@H]2O)NC1=O [Molassamide B, molassamide B]
IC50 (Elastase): 11.7 nM
Mean (RFU/s) (Elastase; [3]): 0.846 RFU/s
Mean (RFU/s) (Elastase; [4]): 0.8437 RFU/s
Mean (RFU/s) (Elastase; [5]): 0.8327 RFU/s
Mean (RFU/s) (Elastase; [6]): 0.7837 RFU/s
Mean (RFU/s) (Elastase; [7]): 0.677 RFU/s
Mean (RFU/s) (Elastase; [8]): 0.418 RFU/s
Mean (RFU/s) (Elastase; [9]): 0.1113 RFU/s
Mean (RFU/s) (Elastase; [10]): 0.024 RFU/s
Mean (RFU/s) (Elastase; [11]): 0 RFU/s
Mean (RFU/s) (Elastase; [12]): 0 RFU/s
Mean (RFU/s) (Elastase; [13]): 0 RFU/s
fold increase in potency towards elastase (Elastase; [14]): three
IC50 (Proteinase K): 5.42 nM
Mean (RFU/s) (Proteinase K; [3]): 6.3 RFU/s
Mean (RFU/s) (Proteinase K; [4]): 6.284 RFU/s
Mean (RFU/s) (Proteinase K; [5]): 6.22 RFU/s
Mean (RFU/s) (Proteinase K; [6]): 5.564 RFU/s
Mean (RFU/s) (Proteinase K; [7]): 3.825 RFU/s
Mean (RFU/s) (Proteinase K; [8]): 1.43 RFU/s
Mean (RFU/s) (Proteinase K; [9]): 0.3433 RFU/s
Mean (RFU/s) (Proteinase K; [10]): 0.1 RFU/s
Mean (RFU/s) (Proteinase K; [11]): 0.03367 RFU/s
Mean (RFU/s) (Proteinase K; [12]): 0 RFU/s
Mean (RFU/s) (Proteinase K; [13]): 0 RFU/s
fold increase in potency towards proteinase K (Proteinase K; [14]): four
IC50 (Chymotrypsin [2]; [15]): 24.6 nM
Mean (RFU/s) (Chymotrypsin [2]; [16]): 5.208 RFU/s
Mean (RFU/s) (Chymotrypsin [2]; [17]): 5.061 RFU/s
Mean (RFU/s) (Chymotrypsin [2]; [18]): 5.116 RFU/s
Mean (RFU/s) (Chymotrypsin [2]; [19]): 5.104 RFU/s
Mean (RFU/s) (Chymotrypsin [2]; [20]): 4.681 RFU/s
Mean (RFU/s) (Chymotrypsin [2]; [21]): 3.888 RFU/s
Mean (RFU/s) (Chymotrypsin [2]; [22]): 1.754 RFU/s
Mean (RFU/s) (Chymotrypsin [2]; [23]): 0.844 RFU/s
Mean (RFU/s) (Chymotrypsin [2]; [24]): 0.3123 RFU/s
Mean (RFU/s) (Chymotrypsin [2]; [25]): 0.1157 RFU/s
Mean (RFU/s) (Chymotrypsin [2]; [26]): 0 RFU/s
IC50 (Chymotrypsin [2]; [27]): 24.7 nM
fold increase in potency towards chymotrypsin (Chymotrypsin [2]): thirtyfive
fold increase in potency towards chymotrypsin (Chymotrypsin [2]; listed as 6): 35 fold

CCCC(=O)N1CCCC1C(=O)NC(C(=O)NC1C(=O)NC(CC(C)C)C(=O)NC2CCC(O)N(C2=O)C(Cc2ccccc2)C(=O)N(C)C(Cc2ccc(O)cc2)C(=O)NC(C(C)C)C(=O)OC1C)C(C)OC(=O)C1CCCN1C(=O)CCC (stereo not drawn) [Rivulariapeptolide 1185, rivulariapeptolide 1185]
IC50 (Elastase): 23.6 nM
Mean (RFU/s) (Elastase; [3]): 0.9257 RFU/s
Mean (RFU/s) (Elastase; [4]): 0.9033 RFU/s
Mean (RFU/s) (Elastase; [5]): 0.876 RFU/s
Mean (RFU/s) (Elastase; [6]): 0.8487 RFU/s
Mean (RFU/s) (Elastase; [7]): 0.7693 RFU/s
Mean (RFU/s) (Elastase; [8]): 0.589 RFU/s
Mean (RFU/s) (Elastase; [9]): 0.369 RFU/s
Mean (RFU/s) (Elastase; [10]): 0.07933 RFU/s
Mean (RFU/s) (Elastase; [11]): 0.02233 RFU/s
Mean (RFU/s) (Elastase; [12]): 0 RFU/s
Mean (RFU/s) (Elastase; [13]): 0 RFU/s
decrease in potency towards elastase (Elastase; [28]): fivefold
IC50 (Proteinase K): 55.3 nM
Mean (RFU/s) (Proteinase K; [3]): 6.418 RFU/s
Mean (RFU/s) (Proteinase K; [4]): 6.488 RFU/s
Mean (RFU/s) (Proteinase K; [5]): 6.316 RFU/s
Mean (RFU/s) (Proteinase K; [6]): 6.389 RFU/s
Mean (RFU/s) (Proteinase K; [7]): 6.178 RFU/s
Mean (RFU/s) (Proteinase K; [8]): 5.621 RFU/s
Mean (RFU/s) (Proteinase K; [9]): 4.195 RFU/s
Mean (RFU/s) (Proteinase K; [10]): 1.657 RFU/s
Mean (RFU/s) (Proteinase K; [11]): 0.4863 RFU/s
Mean (RFU/s) (Proteinase K; [12]): 0.13 RFU/s
Mean (RFU/s) (Proteinase K; [13]): 0.04267 RFU/s
IC50 (Chymotrypsin [2]; [15]): 13.2 nM
Mean (RFU/s) (Chymotrypsin [2]; [16]): 5.046 RFU/s
Mean (RFU/s) (Chymotrypsin [2]; [17]): 5.119 RFU/s
Mean (RFU/s) (Chymotrypsin [2]; [18]): 5.025 RFU/s
Mean (RFU/s) (Chymotrypsin [2]; [19]): 5.024 RFU/s
Mean (RFU/s) (Chymotrypsin [2]; [20]): 4.153 RFU/s
Mean (RFU/s) (Chymotrypsin [2]; [21]): 2.685 RFU/s
Mean (RFU/s) (Chymotrypsin [2]; [22]): 1.084 RFU/s
Mean (RFU/s) (Chymotrypsin [2]; [23]): 0.416 RFU/s
Mean (RFU/s) (Chymotrypsin [2]; [24]): 0.1823 RFU/s
Mean (RFU/s) (Chymotrypsin [2]; [25]): 0 RFU/s
Mean (RFU/s) (Chymotrypsin [2]; [26]): 0 RFU/s
IC50 (Chymotrypsin [2]; [27]): 13.2 nM
increase in potency towards chymotrypsin (Chymotrypsin [2]; [28]): more than threefold

CC=C1NC(=O)[C@@H](NC(=O)[C@@H](NC(=O)[C@@H]2CCCN2C(=O)CCC)[C@@H](C)OC(=O)C2CCCN2C(=O)CCC)[C@@H](C)OC(=O)[C@H](C(C)C)NC(=O)[C@H](Cc2ccc(O)cc2)N(C)C(=O)[C@H](Cc2ccccc2)N2C(=O)[C@H](CC[C@H]2O)NC1=O (stereo partly drawn) [Rivulariapeptolide 1155, rivulariapeptolide 1155]
IC50 (Elastase): 4.94 nM
Mean (RFU/s) (Elastase; [3]): 0.9773 RFU/s
Mean (RFU/s) (Elastase; [4]): 0.8963 RFU/s
Mean (RFU/s) (Elastase; [5]): 0.839 RFU/s
Mean (RFU/s) (Elastase; [6]): 0.7733 RFU/s
Mean (RFU/s) (Elastase; [7]): 0.5503 RFU/s
Mean (RFU/s) (Elastase; [8]): 0.1703 RFU/s
Mean (RFU/s) (Elastase; [9]): 0.054 RFU/s
Mean (RFU/s) (Elastase; [10]): 0 RFU/s
Mean (RFU/s) (Elastase; [11]): 0 RFU/s
Mean (RFU/s) (Elastase; [12]): 0 RFU/s
Mean (RFU/s) (Elastase; [13]): 0 RFU/s
IC50 (Proteinase K): 56.5 nM
Mean (RFU/s) (Proteinase K; [3]): 6.603 RFU/s
Mean (RFU/s) (Proteinase K; [4]): 6.245 RFU/s
Mean (RFU/s) (Proteinase K; [5]): 6.403 RFU/s
Mean (RFU/s) (Proteinase K; [6]): 6.159 RFU/s
Mean (RFU/s) (Proteinase K; [7]): 6.088 RFU/s
Mean (RFU/s) (Proteinase K; [8]): 5.497 RFU/s
Mean (RFU/s) (Proteinase K; [9]): 4.358 RFU/s
Mean (RFU/s) (Proteinase K; [10]): 1.504 RFU/s
Mean (RFU/s) (Proteinase K; [11]): 0.363 RFU/s
Mean (RFU/s) (Proteinase K; [12]): 0.09033 RFU/s
Mean (RFU/s) (Proteinase K; [13]): 0.027 RFU/s
IC50 (Chymotrypsin [2]; [15]): 41.8 nM
Mean (RFU/s) (Chymotrypsin [2]; [16]): 5.293 RFU/s
Mean (RFU/s) (Chymotrypsin [2]; [17]): 5.198 RFU/s
Mean (RFU/s) (Chymotrypsin [2]; [18]): 5.411 RFU/s
Mean (RFU/s) (Chymotrypsin [2]; [19]): 5.774 RFU/s
Mean (RFU/s) (Chymotrypsin [2]; [20]): 4.968 RFU/s
Mean (RFU/s) (Chymotrypsin [2]; [21]): 4.399 RFU/s
Mean (RFU/s) (Chymotrypsin [2]; [22]): 2.874 RFU/s
Mean (RFU/s) (Chymotrypsin [2]; [23]): 1.339 RFU/s
Mean (RFU/s) (Chymotrypsin [2]; [24]): 0.494 RFU/s
Mean (RFU/s) (Chymotrypsin [2]; [25]): 0.1737 RFU/s
Mean (RFU/s) (Chymotrypsin [2]; [26]): 0 RFU/s
IC50 (Chymotrypsin [2]; [27]): 41.8 nM
